Experimental data as given in US20260327214A1, “1,3,4-OXADIAZOLE DERIVATIVE COMPOUNDS AS HISTONE DEACETYLASE 6 INHIBITOR, AND USES THEREOF” (CHONG KUN DANG PHARMACEUTICAL CORP., priority 2022, published 2026).

Columns and labels:
[1] = biological target: T1, human recombinant HDAC1 (Homo sapiens, UniProt Q13547); test: HDAC1 enzyme activity inhibition test (HDAC Fluorometric Drug Discovery Kit); assay type: biochemical; details: 30° C., 60 minutes, 10 μM substrate
T1 construct: purchased Enzo Life Science BML-SE456
T1 sequence (Q13547 whole entry): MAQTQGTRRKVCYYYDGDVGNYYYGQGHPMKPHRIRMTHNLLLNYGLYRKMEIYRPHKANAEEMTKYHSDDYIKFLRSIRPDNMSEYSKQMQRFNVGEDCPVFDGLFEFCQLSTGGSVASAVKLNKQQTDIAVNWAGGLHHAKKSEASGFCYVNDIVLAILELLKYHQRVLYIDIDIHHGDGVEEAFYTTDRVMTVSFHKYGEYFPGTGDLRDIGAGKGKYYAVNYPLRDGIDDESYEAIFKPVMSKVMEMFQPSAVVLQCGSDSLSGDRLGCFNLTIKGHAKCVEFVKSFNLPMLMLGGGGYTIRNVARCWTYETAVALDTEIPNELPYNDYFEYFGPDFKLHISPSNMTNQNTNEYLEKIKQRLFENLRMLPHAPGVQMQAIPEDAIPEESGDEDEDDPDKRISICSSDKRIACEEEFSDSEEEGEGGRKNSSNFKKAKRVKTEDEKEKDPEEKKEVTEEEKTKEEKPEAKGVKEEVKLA
Summary of the method: (§1)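 IC50 derived from fluorescence (Ex 360, Em 460) following 30 min development with Developer II. Each reaction held 0.3 μg human recombinant HDAC1 or HDAC6, 10 μM Fluor de Lys SIRT1 substrate and 5-fold serially diluted compound, incubated 60 min at 30 °C.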

[2] = biological target: T2, human recombinant HDAC6 (Homo sapiens, UniProt Q9UBN7); test: HDAC6 enzyme activity inhibition test (HDAC Fluorometric Drug Discovery Kit); assay type: biochemical; details: for HDAC6 selectivity (fold): HDAC6 over HDAC1; for IC50: human recombinant HDAC6, same protocol as HDAC1
T2 construct: purchased Calbiochem 382180
T2 sequence (Q9UBN7 1-1215): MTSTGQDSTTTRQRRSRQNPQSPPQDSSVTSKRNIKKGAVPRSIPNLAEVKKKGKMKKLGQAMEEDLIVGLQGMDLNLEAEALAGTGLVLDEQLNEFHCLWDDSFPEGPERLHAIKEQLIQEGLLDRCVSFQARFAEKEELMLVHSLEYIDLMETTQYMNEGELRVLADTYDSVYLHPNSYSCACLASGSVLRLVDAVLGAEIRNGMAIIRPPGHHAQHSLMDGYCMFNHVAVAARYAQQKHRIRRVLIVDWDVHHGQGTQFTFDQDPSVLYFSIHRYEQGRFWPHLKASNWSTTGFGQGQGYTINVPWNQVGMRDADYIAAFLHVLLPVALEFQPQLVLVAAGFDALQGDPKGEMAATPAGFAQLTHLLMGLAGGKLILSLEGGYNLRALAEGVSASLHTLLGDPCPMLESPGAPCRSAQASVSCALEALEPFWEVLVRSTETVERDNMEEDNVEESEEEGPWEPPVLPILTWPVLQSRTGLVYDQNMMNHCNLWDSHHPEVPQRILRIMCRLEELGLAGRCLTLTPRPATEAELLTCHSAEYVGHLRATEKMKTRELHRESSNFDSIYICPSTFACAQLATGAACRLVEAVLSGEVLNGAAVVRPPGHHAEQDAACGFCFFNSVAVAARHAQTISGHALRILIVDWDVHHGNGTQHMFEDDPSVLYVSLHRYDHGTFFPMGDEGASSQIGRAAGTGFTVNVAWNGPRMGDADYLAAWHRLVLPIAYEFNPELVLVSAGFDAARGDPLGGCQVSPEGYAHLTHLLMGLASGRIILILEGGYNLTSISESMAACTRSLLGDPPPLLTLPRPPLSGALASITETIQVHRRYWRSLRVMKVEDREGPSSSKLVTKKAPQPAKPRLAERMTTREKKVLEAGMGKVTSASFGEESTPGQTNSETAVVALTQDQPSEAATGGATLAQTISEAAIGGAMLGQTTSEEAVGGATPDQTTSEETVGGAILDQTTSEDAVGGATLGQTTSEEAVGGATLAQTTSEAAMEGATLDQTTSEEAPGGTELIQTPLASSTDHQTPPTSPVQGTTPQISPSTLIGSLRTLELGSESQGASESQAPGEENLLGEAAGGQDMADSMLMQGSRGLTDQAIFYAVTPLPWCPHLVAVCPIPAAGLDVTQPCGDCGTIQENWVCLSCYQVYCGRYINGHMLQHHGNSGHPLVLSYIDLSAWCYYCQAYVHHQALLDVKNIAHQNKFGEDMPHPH
Summary of the method: as §1

SMILES	IC50 [1] [nM]	HDAC6 selectivity (fold) [2] [fold]	IC50 [2] [nM]
CNCc1cccc(-c2nn(Cc3ccc(-c4nnc(C(F)F)o4)cn3)c(=S)o2)c1 [Compound 85, 3-[[5-[5-(difluoromethyl)-1,3,4-oxadiazol-2-yl]-2-pyridyl]methyl]-5-[3-(methylaminomethyl)phenyl]-1,3,4-oxadiazol-2-thione]	> 50000	447	112
FC(F)c1nnc(-c2ccc(Cn3nc(-c4cccc(CN5CCCC5)c4)oc3=S)nc2)o1 [Compound 86, 3-[[5-[5-(difluoromethyl)-1,3,4-oxadiazol-2-yl]-2-pyridyl]methyl]-5-[3-(pyrrolidin-1-ylmethyl)phenyl]-1,3,4-oxadiazol-2-thione]	> 50000	760	65.8
FC(F)c1nnc(-c2ccc(Cn3nc(-c4cccc(CN5CCCCC5)c4)oc3=S)nc2)o1 [Compound 87, 3-[[5-[5-(difluoromethyl)-1,3,4-oxadiazol-2-yl]-2-pyridyl]methyl]-5-[3-(1-piperidylmethyl)phenyl]-1,3,4-oxadiazol-2-thione]	> 50000	556	89.9
CN(C)Cc1ccc(-c2nn(Cc3ccc(-c4nnc(C(F)F)o4)cn3)c(=S)o2)cc1 [Compound 91, 3-[[5-[5-(difluoromethyl)-1,3,4-oxadiazol-2-yl]-2-pyridyl]methyl]-5-[4-[(dimethylamino)methyl]phenyl]-1,3,4-oxadiazol-2-thione]	> 50000	1832	27.3
CNCc1ccc(-c2nn(Cc3ccc(-c4nnc(C(F)F)o4)cn3)c(=S)o2)cc1 [Compound 92, 3-[[5-[5-(difluoromethyl)-1,3,4-oxadiazol-2-yl]-2-pyridyl]methyl]-5-[4-(methylaminomethyl)phenyl]-1,3,4-oxadiazol-2-thione]	> 50000	3185	15.7
FC(F)c1nnc(-c2ccc(Cn3nc(-c4ccc(CN5CCCC5)cc4)oc3=S)nc2)o1 [Compound 93, 3-[[5-[5-(difluoromethyl)-1,3,4-oxadiazol-2-yl]-2-pyridyl]methyl]-5-[4-(pyrrolidin-1-ylmethyl)phenyl]-1,3,4-oxadiazol-2-thione]	> 50000	2890	17.3
FC(F)c1nnc(-c2ccc(Cn3nc(-c4ccc(CN5CCCCC5)cc4)oc3=S)nc2)o1 [Compound 94, 3-[[5-[5-(difluoromethyl)-1,3,4-oxadiazol-2-yl]-2-pyridyl]methyl]-5-[4-(1-piperidylmethyl)phenyl]-1,3,4-oxadiazol-2-thione]	> 50000	1672	29.9
CC1CCN(Cc2ccc(-c3nn(Cc4ccc(-c5nnc(C(F)F)o5)cn4)c(=S)o3)cc2)CC1 [Compound 96, 3-[[5-[5-(difluoromethyl)-1,3,4-oxadiazol-2-yl]-2-pyridyl]methyl]-5-[4-[(4-methyl-1-piperidyl)methyl]phenyl]-1,3,4-oxadiazol-2-thione]	> 50000	1208	41.4
FC(F)c1nnc(-c2ccc(Cn3nc(-c4ccc(CN5CC[C@@H](F)C5)cc4)oc3=S)nc2)o1 [Compound 97, 3-[[5-[5-(difluoromethyl)-1,3,4-oxadiazol-2-yl]-2-pyridyl]methyl]-5-[4-[[(3R)-3-fluoropyrrolidin-1-yl]methyl]phenyl]-1,3,4-oxadiazol-2-thione]	> 50000	862	58.1
FC(F)c1nnc(-c2ccc(Cn3nc(-c4ccc(CN5CC[C@H](F)C5)cc4)oc3=S)nc2)o1 [Compound 98, 3-[[5-[5-(difluoromethyl)-1,3,4-oxadiazol-2-yl]-2-pyridyl]methyl]-5-[4-[[(3S)-3-fluoropyrrolidin-1-yl]methyl]phenyl]-1,3,4-oxadiazol-2-thione]	> 50000	552	90.6
CCN1CCN(c2cccc(-c3nn(Cc4ccc(-c5nnc(C(F)F)o5)cn4)c(=S)o3)n2)CC1 [Compound 100, 3-[[5-[5-(difluoromethyl)-1,3,4-oxadiazol-2-yl]-2-pyridyl]methyl]-5-[6-(4-ethylpiperazin-1-yl)-2-pyridyl]-1,3,4-oxadiazol-2-thione]	> 50000	2049	24.4

Other lines, results leading:

IC50 [1] [nM]	HDAC6 selectivity (fold) [2] [fold]	IC50 [2] [nM]	SMILES
> 50000	453	110	Fc1c(-c2nn(Cc3ccc(-c4nnc(C(F)F)o4)cn3)c(=S)o2)cccc1C1CCN(C2CCCC2)CC1 [Compound 82, 5-[3-(1-cyclopentyl-4-piperidyl)-2-fluoro-phenyl]-3-[[5-[5-(difluoromethyl)-1,3,4-oxadiazol-2-yl]-2-pyridyl]methyl]-1,3,4-oxadiazol-2-thione]
> 50000	554	90.3	CC(C)N1CCN(Cc2ccc(-c3nn(Cc4ccc(-c5nnc(C(F)F)o5)cn4)c(=O)o3)cc2)CC1 [Compound 83, 3-[[5-[5-(difluoromethyl)-1,3,4-oxadiazol-2-yl]-2-pyridyl]methyl]-5-[4-[(4-isopropylpiperazin-1-yl)methyl]phenyl]-1,3,4-oxadiazol-2-one]
> 50000	497	101	CN(C)Cc1cccc(-c2nn(Cc3ccc(-c4nnc(C(F)F)o4)cn3)c(=S)o2)c1 [Compound 84, 3-((5-(5-(difluoromethyl)-1,3,4-oxadiazol-2-yl)pyridin-2-yl)methyl)-5-(3-((dimethylamino)methyl)phenyl)-1,3,4-oxadiazol-2(3H)-thione]
> 50000	449	111	CC1CCN(Cc2cccc(-c3nn(Cc4ccc(-c5nnc(C(F)F)o5)cn4)c(=S)o3)c2)CC1 [Compound 88, 3-[[5-[5-(difluoromethyl)-1,3,4-oxadiazol-2-yl]-2-pyridyl]methyl]-5-[3-[(4-methyl-1-piperidyl)methyl]phenyl]-1,3,4-oxadiazol-2-thione]
> 50000	1027	48.7	FC(F)c1nnc(-c2ccc(Cn3nc(-c4cccc(CN5CC[C@@H](F)C5)c4)oc3=S)nc2)o1 [Compound 89, 3-[[5-[5-(difluoromethyl)-1,3,4-oxadiazol-2-yl]-2-pyridyl]methyl]-5-[3-[[(3R)-3-fluoropyrrolidin-1-yl]methyl]phenyl]-1,3,4-oxadiazol-2-thione]
> 50000	835	59.9	FC(F)c1nnc(-c2ccc(Cn3nc(-c4cccc(CN5CC[C@H](F)C5)c4)oc3=S)nc2)o1 [Compound 90, 3-[[5-[5-(difluoromethyl)-1,3,4-oxadiazol-2-yl]-2-pyridyl]methyl]-5-[3-[[(3S)-3-fluoropyrrolidin-1-yl]methyl]phenyl]-1,3,4-oxadiazol-2-thione]
> 50000	574	87.1	FC(F)c1nnc(-c2ccc(Cn3nc(-c4ccc(CN5CCOCC5)cc4)oc3=S)nc2)o1 [Compound 95, 3-[[5-[5-(difluoromethyl)-1,3,4-oxadiazol-2-yl]-2-pyridyl]methyl]-5-[4-(morpholinomethyl)phenyl]-1,3,4-oxadiazol-2-thione]
> 50000	511	97.8	FC(F)c1nnc(-c2ccc(Cn3nc(-c4cccc(CN5CCOCC5)c4)oc3=S)nc2)o1 [Compound 99, 3-[[5-[5-(difluoromethyl)-1,3,4-oxadiazol-2-yl]-2-pyridyl]methyl]-5-[3-(morpholinomethyl)phenyl]-1,3,4-oxadiazol-2-thione]
> 50000	2538	19.7	CC(C)N1CCN(c2cccc(-c3nn(Cc4ccc(-c5nnc(C(F)F)o5)cn4)c(=S)o3)n2)CC1 [Compound 101, 3-[[5-[5-(difluoromethyl)-1,3,4-oxadiazol-2-yl]-2-pyridyl]methyl]-5-[6-(4-isopropylpiperazin-1-yl)-2-pyridyl]-1,3,4-oxadiazol-2-thione]
